The target in assay [1] is T1, Bromodomain-containing protein 4 (Homo sapiens, UniProt O60885). Kind of assay: Inhibition of His-tagged BRD4 bromodomain 1 (unknown origin) using [Lys (5,8,12,16) Ac] H4(1-21) as substrate by fluorescence based assay.
The target in another assay is Histone deacetylase 1 (Homo sapiens, UniProt Q13547). As to the kind of experiment: Inhibition of HDAC1 (unknown origin) by fluorescence based assay.
For assay [2], the target named is T1, Bromodomain-containing protein 4. As to the kind of experiment: Inhibition of His-tagged BRD4 bromodomain 2 (unknown origin) using [Lys (5,8,12,16) Ac] H4(1-21) as substrate by fluorescence based assay.
A further assay relates to MV4-11. Kind of assay: Antiproliferative activity against human MV4-11 cells assessed as cell viability after 72 hrs by CCK8 assay. The class given is functional, cell-based. The following applies: MV4-11, 72 h.
For assay [3], the target named is T2, Protein deacetylase HDAC6 (Homo sapiens, UniProt Q9UBN7).
T2 sequence (Q9UBN7 whole entry): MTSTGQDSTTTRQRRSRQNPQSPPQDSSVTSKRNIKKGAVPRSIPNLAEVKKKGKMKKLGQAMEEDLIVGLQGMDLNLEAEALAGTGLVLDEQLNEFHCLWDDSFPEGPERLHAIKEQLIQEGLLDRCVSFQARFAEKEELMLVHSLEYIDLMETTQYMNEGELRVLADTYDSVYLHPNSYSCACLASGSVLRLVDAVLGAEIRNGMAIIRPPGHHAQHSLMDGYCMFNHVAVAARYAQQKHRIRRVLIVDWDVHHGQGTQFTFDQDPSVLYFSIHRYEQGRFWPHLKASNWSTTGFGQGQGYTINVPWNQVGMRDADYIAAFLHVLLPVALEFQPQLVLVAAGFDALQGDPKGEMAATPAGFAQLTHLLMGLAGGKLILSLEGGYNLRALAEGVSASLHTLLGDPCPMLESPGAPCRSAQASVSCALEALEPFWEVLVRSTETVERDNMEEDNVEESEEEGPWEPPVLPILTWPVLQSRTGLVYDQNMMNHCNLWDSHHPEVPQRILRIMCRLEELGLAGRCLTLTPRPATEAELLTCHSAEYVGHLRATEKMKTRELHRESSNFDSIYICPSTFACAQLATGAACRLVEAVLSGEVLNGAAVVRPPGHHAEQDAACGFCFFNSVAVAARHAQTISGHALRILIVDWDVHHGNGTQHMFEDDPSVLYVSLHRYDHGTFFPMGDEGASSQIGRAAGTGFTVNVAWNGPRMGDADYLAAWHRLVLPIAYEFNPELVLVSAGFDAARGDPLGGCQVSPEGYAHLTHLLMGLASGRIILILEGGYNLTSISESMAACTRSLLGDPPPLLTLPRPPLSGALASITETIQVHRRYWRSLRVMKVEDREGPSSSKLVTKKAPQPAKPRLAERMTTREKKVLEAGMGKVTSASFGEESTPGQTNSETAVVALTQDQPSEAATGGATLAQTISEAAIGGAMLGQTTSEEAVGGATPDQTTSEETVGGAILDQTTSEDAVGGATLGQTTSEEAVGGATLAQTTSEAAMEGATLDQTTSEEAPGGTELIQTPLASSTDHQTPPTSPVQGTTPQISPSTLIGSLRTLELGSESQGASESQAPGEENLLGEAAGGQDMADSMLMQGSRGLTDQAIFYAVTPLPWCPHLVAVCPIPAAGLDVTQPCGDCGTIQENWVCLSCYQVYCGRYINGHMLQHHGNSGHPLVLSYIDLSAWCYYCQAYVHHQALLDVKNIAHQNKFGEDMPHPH
Kind of assay: Inhibition of HDAC6 (unknown origin) by fluorescence based assay.

Histone deacetylase 1, sequence (Q13547 whole entry): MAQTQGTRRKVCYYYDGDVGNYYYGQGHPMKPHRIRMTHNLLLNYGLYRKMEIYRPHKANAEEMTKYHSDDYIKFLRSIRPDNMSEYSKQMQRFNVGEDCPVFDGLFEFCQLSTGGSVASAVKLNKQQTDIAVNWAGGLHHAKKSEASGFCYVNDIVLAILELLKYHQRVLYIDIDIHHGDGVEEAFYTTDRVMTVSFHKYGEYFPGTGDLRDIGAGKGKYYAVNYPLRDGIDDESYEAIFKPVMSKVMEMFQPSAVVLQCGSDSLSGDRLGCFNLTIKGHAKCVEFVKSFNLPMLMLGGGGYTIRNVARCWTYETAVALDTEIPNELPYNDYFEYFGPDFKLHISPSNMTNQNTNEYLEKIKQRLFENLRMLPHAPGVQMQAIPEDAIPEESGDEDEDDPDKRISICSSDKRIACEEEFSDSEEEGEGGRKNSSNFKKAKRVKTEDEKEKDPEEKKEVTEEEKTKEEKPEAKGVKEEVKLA

As usually defined, the IC50 is the midpoint of a concentration-inhibition curve. As to `Cn1cc(-c2cccc(C(F)(F)F)c2)c2cc(C(=O)NCc3ccc(C(=O)Nc4ccccc4N)cc3)[nH]c2c1=O`, the values for the half-maximal inhibitory concentration (IC50) (in assay [1]; at Histone deacetylase 1; in assay [2]) were 823 nM, greater than 500 nM and 313 nM, respectively.

Turning to `COc1ccc(C(C)(C)O)cc1-c1cn(C)c(=O)c2[nH]c(C(=O)NCc3ccc(C(=O)Nc4ccccc4N)cc3)cc12`, the IC50 in assay [1] is 3.9 nM; against Histone deacetylase 1, 333 nM; in assay [2], 7 nM; with MV4-11, 420 nM.

For `Cn1cc(-c2ccccc2Oc2ccccc2)c2cc(C(=O)NCCCCC(=O)Nc3ccccc3N)[nH]c2c1=O`, the IC50 in assay [1] is 73 nM; at Histone deacetylase 1 it was greater than 500 nM; in assay [2] it was 11.3 nM; in the assay on MV4-11, 240 nM; in assay [3], greater than 500 nM.

`Cn1cc(-c2ccccc2Oc2ccccc2)c2cc(C(=O)NCCCCCC(=O)Nc3ccccc3N)[nH]c2c1=O`: the IC50 is 583 nM in assay [1]; 176 nM on Histone deacetylase 1; 8.4 nM in assay [2]; 70 nM in the assay on MV4-11; greater than 500 nM in assay [3].

`Cc1cc(F)cc(C)c1Oc1ccc(C(C)(C)O)cc1-c1cn(C)c(=O)c2[nH]c(C(=O)NCc3ccc(C(=O)NO)cc3)cc12`: the IC50 in assay [1] is 305 nM; at Histone deacetylase 1 it was 293 nM; in assay [2], 1.5 nM; in the assay with MV4-11 it was 440 nM; in assay [3], 39.3 nM.

In the case of `COc1ccccc1-c1cn(C)c(=O)c2[nH]c(C(=O)NCc3ccc(C(=O)Nc4ccccc4N)cc3)cc12`, the half-inhibitory concentration (IC50) stood at 22.6 nM in assay [1], 57.6 nM at Histone deacetylase 1, 47.6 nM in assay [2] and 200 nM with MV4-11.

Regarding `Cn1cc(-c2cc(C(C)(C)O)ccc2Oc2ccc(F)cc2F)c2cc(C(=O)NCc3ccc(C(=O)Nc4ccccc4N)cc3)[nH]c2c1=O`, the IC50 was 18.1 nM in assay [1], 164 nM on Histone deacetylase 1, 1.5 nM in assay [2] and 90 nM with MV4-11.

For the molecule `Cn1cc(-c2ccc(F)cc2)c2cc(C(=O)NCc3ccc(C(=O)Nc4ccccc4N)cc3)[nH]c2c1=O`, the IC50 in assay [1] came to 44.1 nM; against Histone deacetylase 1, 47.3 nM; in assay [2], 79.9 nM; in the assay with MV4-11 it was 220 nM.

Regarding `Cn1cc(-c2cccc(C(C)(C)O)c2)c2cc(C(=O)NCc3ccc(C(=O)Nc4ccccc4N)cc3)[nH]c2c1=O`, the IC50 in assay [1] was 20 nM; against Histone deacetylase 1, 28.1 nM; in assay [2], 30 nM; with MV4-11, 2200 nM.

Regarding `Cn1cc(-c2cc(C(C)(C)O)ccc2Oc2ccc(F)cc2F)c2cc(C(=O)NCc3ccc(C(=O)NO)cc3)[nH]c2c1=O`, the IC50 in assay [1] turned out to be 76.7 nM; against Histone deacetylase 1, 74 nM; in assay [2], 12.4 nM; in the assay on MV4-11, 190 nM; in assay [3] it was 15.6 nM.

On to `Cn1cc(-c2ccccc2Oc2ccccc2)c2cc(C(=O)NCCCCCCC(=O)Nc3ccccc3N)[nH]c2c1=O`, for which the half-inhibitory concentration (IC50) in assay [1] was 140 nM; against Histone deacetylase 1, greater than 500 nM; in assay [2] it was 15.4 nM; in the assay on MV4-11, 130 nM; in assay [3], greater than 500 nM.

As to `Cc1sc2c(c1C)C(c1ccc(Cl)cc1)=N[C@@H](CC(=O)Nc1ccc(O)cc1)c1nnc(C)n1-2` [BIRABRESIB], the half-maximal inhibitory concentration (IC50) was greater than 10000 nM on Histone deacetylase 1, 200 nM in the assay on MV4-11 and greater than 10000 nM in assay [3].

In the case of `Cn1cc(-c2cccc(F)c2)c2cc(C(=O)NCc3ccc(C(=O)Nc4ccccc4N)cc3)[nH]c2c1=O`, the IC50 in assay [1] stood at 50.9 nM; at Histone deacetylase 1, 53.1 nM; in assay [2] it was 75.9 nM; in the assay on MV4-11, 210 nM.

As for `Cn1cc(-c2ccc(C(F)(F)F)cc2)c2cc(C(=O)NCc3ccc(C(=O)Nc4ccccc4N)cc3)[nH]c2c1=O`, the IC50 in assay [1] worked out at 146 nM; on Histone deacetylase 1, 240 nM; in assay [2], 364 nM.

As to `Cn1cc(-c2cccc(Cl)c2)c2cc(C(=O)NCc3ccc(C(=O)Nc4ccccc4N)cc3)[nH]c2c1=O`, the IC50 was determined as 65.5 nM in assay [1], 134 nM against Histone deacetylase 1, 158 nM in assay [2] and 190 nM in the assay with MV4-11.

For `Cn1cc(-c2ccccc2Cl)c2cc(C(=O)NCc3ccc(C(=O)Nc4ccccc4N)cc3)[nH]c2c1=O`, the results for the IC50 (in assay [1]; on Histone deacetylase 1; in assay [2]) were 102 nM, 48.8 nM and 206 nM, respectively.

Take `CCNC(=O)c1cc2c(-c3cc(C(C)(C)O)ccc3Oc3c(C)cc(F)cc3C)cn(C)c(=O)c2[nH]1` [ABBV-744]: the IC50 against Histone deacetylase 1 is greater than 10000 nM; in the assay with MV4-11, 250 nM; in assay [3], greater than 10000 nM.

Turning to `COc1cccc(-c2cn(C)c(=O)c3[nH]c(C(=O)NCc4ccc(C(=O)Nc5ccccc5N)cc4)cc23)c1`, the concentration for half-maximal inhibition (IC50) in assay [1] was 30.1 nM; on Histone deacetylase 1, 54.5 nM; in assay [2], 116 nM; with MV4-11, 250 nM.

For the molecule `Cc1ccccc1-c1cn(C)c(=O)c2[nH]c(C(=O)NCc3ccc(C(=O)Nc4ccccc4N)cc3)cc12`, the 50% inhibitory concentration (IC50) stood at 117 nM in assay [1], 63.9 nM on Histone deacetylase 1, 149 nM in assay [2] and 310 nM in the assay on MV4-11.

For `Cn1cc(-c2ccccc2F)c2cc(C(=O)NCc3ccc(C(=O)Nc4ccccc4N)cc3)[nH]c2c1=O`, the 50% inhibitory concentration (IC50) in assay [1] was found to be 85.9 nM; at Histone deacetylase 1, 20.8 nM; in assay [2] it was 55.3 nM; in the assay on MV4-11 it was 230 nM.

For `Cn1cc(-c2cc(C(C)(C)O)ccc2OC2CC2)c2cc(C(=O)NCc3ccc(C(=O)Nc4ccccc4N)cc3)[nH]c2c1=O`, the concentration for half-maximal inhibition (IC50) is 7.7 nM in assay [1], 68.8 nM against Histone deacetylase 1, 2.1 nM in assay [2] and 40 nM in the assay on MV4-11.

As to `Cn1cc(-c2ccc(Cl)cc2)c2cc(C(=O)NCc3ccc(C(=O)Nc4ccccc4N)cc3)[nH]c2c1=O`, the results for the IC50 (in assay [1]; against Histone deacetylase 1; in assay [2]) were 62.4 nM, 59.3 nM and 278 nM, respectively.

`Cn1cc(-c2ccccc2)c2cc(C(=O)NCc3ccc(C(=O)Nc4ccccc4N)cc3)[nH]c2c1=O`: the IC50 in assay [1] is 47.8 nM; against Histone deacetylase 1, 52 nM; in assay [2], 75.8 nM; with MV4-11 it was 230 nM.

As for `O=C(CCCCCCC(=O)Nc1ccccc1)NO` [VORINOSTAT], the half-inhibitory concentration (IC50) in assay [1] and in assay [2] was greater than 10000 nM in each case.

Consider `COc1ccc(-c2cn(C)c(=O)c3[nH]c(C(=O)NCc4ccc(C(=O)Nc5ccccc5N)cc4)cc23)cc1`, for which the IC50 in assay [1] was found to be 40.5 nM; on Histone deacetylase 1, 46.8 nM; in assay [2], 61.2 nM; in the assay with MV4-11 it was 320 nM.

As to `Cn1cc(-c2ccccc2C(F)(F)F)c2cc(C(=O)NCc3ccc(C(=O)Nc4ccccc4N)cc3)[nH]c2c1=O`, the IC50 worked out at 371 nM in assay [1], 210 nM on Histone deacetylase 1 and 571 nM in assay [2].

Regarding `Cc1cccc(-c2cn(C)c(=O)c3[nH]c(C(=O)NCc4ccc(C(=O)Nc5ccccc5N)cc4)cc23)c1`, the 50% inhibitory concentration (IC50) came out at 52.8 nM in assay [1], 54.9 nM at Histone deacetylase 1 and 105 nM in assay [2].

Regarding `Nc1ccccc1NC(=O)c1ccc(CNC(=O)OCc2cccnc2)cc1` [ENTINOSTAT], the 50% inhibitory concentration (IC50) is greater than 10000 nM in assay [1], greater than 10000 nM in assay [2] and 240 nM with MV4-11.

On to `CC(C)Oc1ccccc1-c1cn(C)c(=O)c2[nH]c(C(=O)NCc3ccc(C(=O)Nc4ccccc4N)cc3)cc12`, for which the IC50 in assay [1] was 22.8 nM; on Histone deacetylase 1 it was 116 nM; in assay [2] it was 15.3 nM; with MV4-11, 130 nM.

Take `Cc1cc(F)cc(C)c1Oc1ccc(C(C)(C)O)cc1-c1cn(C)c(=O)c2[nH]c(C(=O)NCc3ccc(C(=O)Nc4ccccc4N)cc3)cc12`: the IC50 in assay [1] was 229 nM; at Histone deacetylase 1, greater than 500 nM; in assay [2], 36.6 nM; in the assay on MV4-11 it was 240 nM.

Turning to `Cc1ccc(-c2cn(C)c(=O)c3[nH]c(C(=O)NCc4ccc(C(=O)Nc5ccccc5N)cc4)cc23)cc1`, the concentration for half-maximal inhibition (IC50) came to 61 nM in assay [1], 94 nM at Histone deacetylase 1 and 122 nM in assay [2].

For `Cn1cc(-c2cc(C(C)(C)O)ccc2Oc2ccccc2)c2cc(C(=O)NCc3ccc(C(=O)Nc4ccccc4N)cc3)[nH]c2c1=O`, the concentration for half-maximal inhibition (IC50) was found to be 13.4 nM in assay [1], 229 nM against Histone deacetylase 1, 3 nM in assay [2] and 100 nM in the assay on MV4-11.

These data come from ChEMBL document CHEMBL4732071, “Discovery of selective HDAC/BRD4 dual inhibitors as epigenetic probes” (Eur J Med Chem, 2021).
